Assay results as given in ChEMBL document CHEMBL1140446, “Designed multiple ligands. An emerging drug discovery paradigm” (J Med Chem, 2005).

Tests used:
Thromboxane A2 receptor = target: T1, Thromboxane A2 receptor (Homo sapiens, UniProt P21731)
T1 sequence (P21731 whole entry): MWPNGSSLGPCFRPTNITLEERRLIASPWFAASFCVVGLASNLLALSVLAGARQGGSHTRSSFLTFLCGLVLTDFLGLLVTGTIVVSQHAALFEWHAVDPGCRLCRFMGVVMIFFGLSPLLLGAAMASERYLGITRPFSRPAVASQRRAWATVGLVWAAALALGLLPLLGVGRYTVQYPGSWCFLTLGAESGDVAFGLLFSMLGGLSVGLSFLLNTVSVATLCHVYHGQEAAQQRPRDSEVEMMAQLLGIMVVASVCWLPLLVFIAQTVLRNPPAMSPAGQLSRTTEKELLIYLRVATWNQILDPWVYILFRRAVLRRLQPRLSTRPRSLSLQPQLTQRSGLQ
Description: Inhibition constant against thromboxane A2 receptor to prostaglandin H2 receptor

[1] = target: T2, Type-1 angiotensin II receptor (Homo sapiens, UniProt P30556)
T2 sequence (P30556 whole entry): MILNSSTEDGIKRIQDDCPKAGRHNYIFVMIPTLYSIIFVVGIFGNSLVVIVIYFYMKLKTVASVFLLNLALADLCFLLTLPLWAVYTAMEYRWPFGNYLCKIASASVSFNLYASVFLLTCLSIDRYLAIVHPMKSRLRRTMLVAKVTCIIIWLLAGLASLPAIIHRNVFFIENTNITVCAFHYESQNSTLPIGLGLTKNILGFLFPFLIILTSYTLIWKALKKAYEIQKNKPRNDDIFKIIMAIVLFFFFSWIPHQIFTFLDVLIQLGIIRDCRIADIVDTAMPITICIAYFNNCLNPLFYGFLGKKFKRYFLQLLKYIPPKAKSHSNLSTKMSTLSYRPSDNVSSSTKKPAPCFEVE
Description: (§1) Inhibitory concentration against angiotensin II receptor, type 1

[2] = target: T3, Type-2 angiotensin II receptor (Homo sapiens, UniProt P50052)
T3 sequence (P50052 whole entry): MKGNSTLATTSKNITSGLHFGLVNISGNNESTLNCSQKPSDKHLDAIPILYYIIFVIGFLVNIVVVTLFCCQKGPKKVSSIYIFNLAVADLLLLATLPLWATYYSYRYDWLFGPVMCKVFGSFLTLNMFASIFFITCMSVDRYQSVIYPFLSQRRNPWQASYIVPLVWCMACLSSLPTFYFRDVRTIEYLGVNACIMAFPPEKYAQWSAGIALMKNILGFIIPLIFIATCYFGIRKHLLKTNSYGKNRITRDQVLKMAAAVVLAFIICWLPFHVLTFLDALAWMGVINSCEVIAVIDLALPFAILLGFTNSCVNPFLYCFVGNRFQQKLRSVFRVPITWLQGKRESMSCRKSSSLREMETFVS
Description: Inhibitory concentration against angiotensin II receptor, type 2

[3] = target: Prostaglandin G/H synthase 1 (Homo sapiens, UniProt P23219)
Description: Inhibitory concentration against prostaglandin G/H synthase 1

[4] = target: T2, Type-1 angiotensin II receptor; remark: listed apart in the source
Description: as §1

Endothelin-1 receptor = target: T4, Endothelin-1 receptor (Homo sapiens, UniProt P25101)
T4 sequence (P25101 whole entry): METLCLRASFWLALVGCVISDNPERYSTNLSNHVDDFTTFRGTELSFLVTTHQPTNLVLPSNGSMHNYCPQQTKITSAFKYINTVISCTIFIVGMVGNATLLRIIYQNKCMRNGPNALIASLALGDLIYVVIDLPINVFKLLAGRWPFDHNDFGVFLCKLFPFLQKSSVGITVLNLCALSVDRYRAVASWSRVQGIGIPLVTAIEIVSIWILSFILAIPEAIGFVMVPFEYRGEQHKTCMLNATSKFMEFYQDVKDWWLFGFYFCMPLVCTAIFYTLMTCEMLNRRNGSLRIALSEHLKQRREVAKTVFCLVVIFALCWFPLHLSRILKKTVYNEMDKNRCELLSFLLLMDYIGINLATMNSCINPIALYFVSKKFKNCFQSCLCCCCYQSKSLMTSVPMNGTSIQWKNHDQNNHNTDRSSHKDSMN
Description: Inhibitory concentration against endothelin receptor type A

[5] = target: T5, Peroxisome proliferator-activated receptor gamma (Homo sapiens, UniProt P37231)
T5 sequence (P37231 whole entry): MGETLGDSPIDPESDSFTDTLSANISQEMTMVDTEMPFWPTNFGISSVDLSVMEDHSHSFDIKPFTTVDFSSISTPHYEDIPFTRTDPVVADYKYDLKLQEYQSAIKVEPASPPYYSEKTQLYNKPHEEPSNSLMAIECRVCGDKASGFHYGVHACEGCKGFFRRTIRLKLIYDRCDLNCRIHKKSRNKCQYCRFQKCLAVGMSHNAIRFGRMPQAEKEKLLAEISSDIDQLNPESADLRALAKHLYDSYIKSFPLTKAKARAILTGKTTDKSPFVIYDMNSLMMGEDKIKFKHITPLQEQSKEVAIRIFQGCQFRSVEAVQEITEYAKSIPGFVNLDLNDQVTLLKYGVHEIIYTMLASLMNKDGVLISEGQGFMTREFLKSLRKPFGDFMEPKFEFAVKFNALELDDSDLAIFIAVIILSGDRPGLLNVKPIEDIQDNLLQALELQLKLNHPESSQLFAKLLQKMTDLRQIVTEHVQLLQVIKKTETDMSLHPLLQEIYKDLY
Description: Binding affinity towards peroxisome proliferator activated receptor gamma

[6] = target: T6, Peroxisome proliferator-activated receptor alpha (Homo sapiens, UniProt Q07869)
T6 sequence (Q07869 whole entry): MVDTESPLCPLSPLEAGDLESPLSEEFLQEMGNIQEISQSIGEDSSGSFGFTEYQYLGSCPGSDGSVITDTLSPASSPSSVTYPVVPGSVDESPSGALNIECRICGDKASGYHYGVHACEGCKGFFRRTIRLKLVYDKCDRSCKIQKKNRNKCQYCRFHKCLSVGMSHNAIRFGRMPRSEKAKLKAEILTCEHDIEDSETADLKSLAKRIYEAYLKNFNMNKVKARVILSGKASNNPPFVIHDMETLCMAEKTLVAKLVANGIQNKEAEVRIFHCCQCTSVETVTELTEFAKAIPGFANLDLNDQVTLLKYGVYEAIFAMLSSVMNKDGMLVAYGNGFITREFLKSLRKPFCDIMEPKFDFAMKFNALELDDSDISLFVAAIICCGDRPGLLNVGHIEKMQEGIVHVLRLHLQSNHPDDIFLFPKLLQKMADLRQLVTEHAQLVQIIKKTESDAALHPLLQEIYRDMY
Description: Binding affinity towards peroxisome proliferator activated receptor alpha

Histamine H1 receptor = Histamine H1 receptor (Homo sapiens, UniProt P35367)
Description: Inhibition constant against histamine H1 receptor

Substance-K receptor = target: T7, Substance-K receptor (Homo sapiens, UniProt P21452)
T7 sequence (P21452 whole entry): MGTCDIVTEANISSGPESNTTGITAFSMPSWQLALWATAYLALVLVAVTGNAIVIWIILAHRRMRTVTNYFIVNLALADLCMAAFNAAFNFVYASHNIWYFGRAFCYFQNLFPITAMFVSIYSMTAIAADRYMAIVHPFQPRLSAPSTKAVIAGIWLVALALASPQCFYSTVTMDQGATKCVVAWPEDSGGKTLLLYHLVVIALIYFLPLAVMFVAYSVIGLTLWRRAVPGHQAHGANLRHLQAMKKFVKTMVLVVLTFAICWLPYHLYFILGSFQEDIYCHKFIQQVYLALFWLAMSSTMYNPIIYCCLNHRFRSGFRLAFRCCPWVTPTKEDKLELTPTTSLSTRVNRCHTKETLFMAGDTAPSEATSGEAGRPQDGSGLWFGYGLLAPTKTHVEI
Description: Inhibitory concentration against tachykinin receptor 2

Substance-P receptor = Substance-P receptor (Homo sapiens, UniProt P25103); test: Inhibitory concentration against tachykinin receptor 1
Thromboxane-A synthase = Thromboxane-A synthase (Homo sapiens, UniProt P24557)
Description: Inhibitory concentration against thromboxane A2 synthase

[7] = target: T8, Polyunsaturated fatty acid 5-lipoxygenase (Homo sapiens, UniProt P09917)
T8 sequence (P09917 whole entry): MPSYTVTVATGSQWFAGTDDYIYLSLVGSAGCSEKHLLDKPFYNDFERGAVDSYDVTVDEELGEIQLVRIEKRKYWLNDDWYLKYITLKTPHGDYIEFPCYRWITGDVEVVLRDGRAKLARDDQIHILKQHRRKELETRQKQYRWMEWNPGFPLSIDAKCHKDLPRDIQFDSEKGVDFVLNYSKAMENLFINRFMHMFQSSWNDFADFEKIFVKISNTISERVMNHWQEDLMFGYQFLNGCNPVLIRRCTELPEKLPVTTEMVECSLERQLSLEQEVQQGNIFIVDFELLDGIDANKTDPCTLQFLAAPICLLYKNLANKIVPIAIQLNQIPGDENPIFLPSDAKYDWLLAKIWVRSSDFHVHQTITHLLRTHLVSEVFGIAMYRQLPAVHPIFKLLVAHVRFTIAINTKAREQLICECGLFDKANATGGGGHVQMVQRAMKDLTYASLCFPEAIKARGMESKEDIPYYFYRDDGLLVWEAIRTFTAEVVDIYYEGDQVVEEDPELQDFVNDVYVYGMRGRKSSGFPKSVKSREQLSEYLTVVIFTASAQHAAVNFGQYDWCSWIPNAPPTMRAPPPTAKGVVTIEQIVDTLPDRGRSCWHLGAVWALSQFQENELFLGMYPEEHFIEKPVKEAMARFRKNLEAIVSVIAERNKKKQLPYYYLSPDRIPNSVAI
Description: Inhibitory concentration against arachidonate 5-lipoxygenase

Sequence of Thromboxane-A synthase (P24557 whole entry): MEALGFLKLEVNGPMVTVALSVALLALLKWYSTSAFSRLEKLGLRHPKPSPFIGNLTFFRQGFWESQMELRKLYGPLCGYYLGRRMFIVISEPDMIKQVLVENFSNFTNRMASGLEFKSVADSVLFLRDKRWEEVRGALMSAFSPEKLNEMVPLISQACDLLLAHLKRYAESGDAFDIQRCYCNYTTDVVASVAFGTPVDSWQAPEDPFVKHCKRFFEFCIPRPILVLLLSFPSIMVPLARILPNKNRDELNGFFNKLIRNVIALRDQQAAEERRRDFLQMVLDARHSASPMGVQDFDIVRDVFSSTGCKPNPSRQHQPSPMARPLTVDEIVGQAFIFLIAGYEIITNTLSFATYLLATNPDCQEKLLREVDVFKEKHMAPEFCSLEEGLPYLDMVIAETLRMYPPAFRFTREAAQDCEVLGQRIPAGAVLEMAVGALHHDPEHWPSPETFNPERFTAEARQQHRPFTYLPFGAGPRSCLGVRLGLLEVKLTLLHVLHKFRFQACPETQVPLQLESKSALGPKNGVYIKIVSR
Sequence of Substance-P receptor (P25103 whole entry): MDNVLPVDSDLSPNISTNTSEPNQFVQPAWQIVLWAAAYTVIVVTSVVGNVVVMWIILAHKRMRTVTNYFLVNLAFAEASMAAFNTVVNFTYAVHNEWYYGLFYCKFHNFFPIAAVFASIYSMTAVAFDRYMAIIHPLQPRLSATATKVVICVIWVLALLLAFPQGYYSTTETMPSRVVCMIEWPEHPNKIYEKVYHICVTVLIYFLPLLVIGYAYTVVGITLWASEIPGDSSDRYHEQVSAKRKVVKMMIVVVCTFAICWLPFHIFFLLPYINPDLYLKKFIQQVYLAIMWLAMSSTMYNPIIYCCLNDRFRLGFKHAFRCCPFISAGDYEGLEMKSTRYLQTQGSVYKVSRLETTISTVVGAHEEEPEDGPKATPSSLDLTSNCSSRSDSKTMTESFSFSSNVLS
Sequence of Histamine H1 receptor (P35367 whole entry): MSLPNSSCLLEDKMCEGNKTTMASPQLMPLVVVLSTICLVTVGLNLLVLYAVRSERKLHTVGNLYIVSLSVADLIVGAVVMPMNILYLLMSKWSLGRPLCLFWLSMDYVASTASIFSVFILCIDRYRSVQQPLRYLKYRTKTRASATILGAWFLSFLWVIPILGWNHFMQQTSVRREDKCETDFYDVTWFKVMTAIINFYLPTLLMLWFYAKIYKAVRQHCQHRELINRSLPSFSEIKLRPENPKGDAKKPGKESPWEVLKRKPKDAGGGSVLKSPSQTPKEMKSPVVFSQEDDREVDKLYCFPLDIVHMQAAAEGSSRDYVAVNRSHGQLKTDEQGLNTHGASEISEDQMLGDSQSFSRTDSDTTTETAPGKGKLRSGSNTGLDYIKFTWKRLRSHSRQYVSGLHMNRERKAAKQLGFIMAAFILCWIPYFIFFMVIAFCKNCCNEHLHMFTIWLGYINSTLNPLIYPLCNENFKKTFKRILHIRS
Sequence of Prostaglandin G/H synthase 1 (P23219 whole entry): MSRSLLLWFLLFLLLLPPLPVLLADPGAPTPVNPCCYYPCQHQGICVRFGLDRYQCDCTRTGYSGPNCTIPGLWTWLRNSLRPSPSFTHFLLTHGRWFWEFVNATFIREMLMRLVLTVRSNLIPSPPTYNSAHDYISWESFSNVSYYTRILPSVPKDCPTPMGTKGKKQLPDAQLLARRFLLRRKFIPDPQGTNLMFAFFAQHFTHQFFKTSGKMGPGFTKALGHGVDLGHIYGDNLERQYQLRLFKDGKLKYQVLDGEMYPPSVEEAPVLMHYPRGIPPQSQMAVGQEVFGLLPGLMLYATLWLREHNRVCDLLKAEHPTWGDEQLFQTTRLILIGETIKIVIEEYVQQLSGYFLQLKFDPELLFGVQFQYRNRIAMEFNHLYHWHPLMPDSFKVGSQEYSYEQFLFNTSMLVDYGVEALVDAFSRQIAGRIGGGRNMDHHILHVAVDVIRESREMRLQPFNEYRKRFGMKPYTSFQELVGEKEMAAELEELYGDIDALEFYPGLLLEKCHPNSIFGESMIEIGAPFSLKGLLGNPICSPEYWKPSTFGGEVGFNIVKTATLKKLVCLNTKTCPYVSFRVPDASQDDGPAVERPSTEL

O=C(O)c1ccc2c(c1)/C(=C/Cn1cnc3ccccc31)c1ccccc1CO2
Ki (Thromboxane A2 receptor): 15 nM

CCCCCN(C(=O)c1ccccc1)c1ccc2nc(CCC)n(Cc3ccc(-c4ccccc4-c4nn[nH]n4)cc3)c(=O)c2c1
IC50 [1]: 1.7 nM
IC50 [2]: 0.7 nM

COC1(c2cc(F)cc(OCc3cc(-c4ccccc4)n(-c4ccc(S(C)(=O)=O)cc4)n3)c2)CCOCC1
IC50 [3]: > 10 nM

CCCCC1=NC2(CCCC2)C(=O)N1Cc1ccc(-c2ccccc2S(=O)(=O)Nc2noc(C)c2C)c(COCC)c1
Ki [4]: 0.8 nM
Ki (Endothelin-1 receptor): 9.3 nM

CC(Cc1ccccc1)(Oc1ccc(Cl)cc1)C(=O)O (configuration not stated)
IC50 [5]: 3900 nM
IC50 [6]: 4400 nM

Cc1onc(NS(=O)(=O)c2ccccc2-c2ccc(-c3ncco3)cc2CN(C)C(=O)CC(C)(C)C)c1C [EDONENTAN]
Ki [4]: > 10 nM
Ki (Endothelin-1 receptor): 10 nM

O=C(O)Cc1ccc2c(c1)C(=CCN1CCC(Cc3ccccc3)CC1)c1ccccc1CO2
Ki (Thromboxane A2 receptor): 740 nM
Ki (Histamine H1 receptor): 20 nM

NC(=O)C1(c2ccccc2)CCN(CC[C@@]2(c3ccc(Cl)c(Cl)c3)CCN(C(=O)c3ccccc3)C2)CC1
IC50 (Substance-K receptor): 2.25 nM
IC50 (Substance-P receptor): 161 nM

CCCCc1nc2ccc(NC(=O)N(C)C(C)C)cc2c(=O)n1Cc1ccc(-c2ccccc2-c2nnn[nH]2)cc1
IC50 [1]: 0.1 nM
IC50 [2]: 4500 nM

Cc1oc(-c2ccccc2)nc1CCOc1ccc(OC(C)(C)C(=O)O)cc1
IC50 [5]: 2570 nM
IC50 [6]: 1740 nM

Cc1c(Cc2ccncc2)n(CCNS(=O)(=O)c2ccc(F)cc2)c2ccc(CCC(=O)O)cc12
IC50 (Thromboxane-A synthase): 78 nM

CN(C)C/C=C1\c2ccccc2COc2ccc(CC(=O)O)cc21
Ki (Thromboxane A2 receptor): > 1000 nM
Ki (Histamine H1 receptor): 11 nM

CC1(C)Cc2c(-c3ccccc3)c(-c3ccc(Cl)cc3)c(CC(=O)O)n2C1 [LICOFELONE]
IC50 [3]: 160 nM
IC50 [7]: 210 nM

COc1cc(C(=O)N2CC[C@@](CCN3CCC(C(N)=O)(c4ccccc4)CC3)(c3ccc(Cl)c(Cl)c3)C2)cc(OC)c1OC
IC50 (Substance-K receptor): 8.4 nM
IC50 (Substance-P receptor): 3.1 nM

CNc1nc2c(Cc3cccnc3)c(C)c(O)c(C)c2s1
IC50 [7]: 100 nM
IC50 (Thromboxane-A synthase): 90 nM
